Structures can show the parent of a compound that is named as a salt.
Target: PAI-1 (Homo sapiens, UniProt P05121)
Assay: PAI-1 inhibition in the S2251 chromogenic substrate assay (PAI functional assay)
Format: biochemical
Settings: for inhibition at 20 µM / inhibition at 50 µM / inhibition at 100 µM: read-out: INHIBITION OF PAI-1 (degree of inhibition); for INHIBITION OF PAI-1 (degree of inhibition): unit assumed; for IC50: PAI-1, S2251 assay
Experimental: In this assay, a compound is incubated with PAI-1 prior to addition to the tPA assay system. Inhibition of PAI-1 results in the production of plasmin from plasminogen. […]
Compounds of formula (A) were tested in a PAI chromogenic substrate assay. […] In turn, the plasmin cleaved the chromogenic substrate S2251 (Kabi-Vitrum) producing pNA (p-nitroaniline) which was detected scectrophotometrically at 405 nm.

Sequence of PAI-1 (P05121 24-402): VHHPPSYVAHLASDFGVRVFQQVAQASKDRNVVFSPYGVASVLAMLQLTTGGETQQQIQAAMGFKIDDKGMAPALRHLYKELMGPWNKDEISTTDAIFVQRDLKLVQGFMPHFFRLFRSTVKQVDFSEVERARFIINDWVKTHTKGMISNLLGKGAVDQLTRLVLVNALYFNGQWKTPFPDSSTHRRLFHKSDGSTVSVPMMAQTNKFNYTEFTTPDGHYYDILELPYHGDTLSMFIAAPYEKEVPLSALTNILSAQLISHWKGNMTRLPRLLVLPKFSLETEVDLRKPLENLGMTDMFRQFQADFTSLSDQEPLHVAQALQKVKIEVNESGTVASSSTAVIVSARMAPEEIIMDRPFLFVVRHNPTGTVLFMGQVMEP

| Compound | INHIBITION OF PAI-1 (degree of inhibition) (12.5 μm, Table 1, first part) [%] | INHIBITION OF PAI-1 (degree of inhibition) (25 μm, Table 1, first part) [%] | INHIBITION OF PAI-1 (degree of inhibition) (50 μm, Table 1, first part) [%] | INHIBITION OF PAI-1 (degree of inhibition) (100 μm, Table 1, first part) [%] | INHIBITION OF PAI-1 (degree of inhibition) (6.25 μm, Table 1, first part) [%] | other results |
| --- | --- | --- | --- | --- | --- | --- |
| CN(C)CCSCc1ccc(/C=c2\[nH]c(=O)/c(=C/c3ccoc3)[nH]c2=O)cc1 [Compound 5073, (3Z,6Z)-6-(4-(2-Dimethylaminoethylthiomethyl)benzylidene)-3-(3-furylmethylene)-2,5-piperazinedione] | – | – | – | – | – | inhibition at 20 µM (20 μM, Table 1, second part): 14%; inhibition at 50 µM (Table 1, second part): 70%; inhibition at 100 µM (100 μM, Table 1, second part): 63% |
| COc1cc2c(cc1OC)CN(CCc1ccc(NC(=O)c3ccc(/C=c4\[nH]c(=O)/c(=C/c5ccccc5)[nH]c4=O)cc3)cc1)CC2 [Compound 5393.HCl] | – | – | – | – | – | INHIBITION OF PAI-1 (degree of inhibition) (20 μM, Table 1, second part): 58%; IC50 (Table 1, second part): 20 µM |
| COc1ccc(/C=c2\[nH]c(=O)/c(=C/c3cn(S(C)(=O)=O)c4ccccc34)[nH]c2=O)cc1 [Compound 1693, (3Z,6Z)-3-(1-methanesulfonyl-3-indolyl)methylene-6-(4-methoxybenzylidene)-2,5-piperazinedione] | 0 | 1 | 2 | 89 | – | IC50 (Table 2): 50 to 100 µM |
| CC(C)(C)OC(=O)n1cc(/C=c2\[nH]c(=O)/c(=C/c3c(Cl)cccc3Cl)[nH]c2=O)c2ccccc21 [Compound 1560, (3Z,6Z)-3-(2,6-Dichlorobenzylidene)-6-(1-tert-butoxycarbonyl-3-indolyl)methylene-2,5-piperazinedione] | 34 | 46 | 48 | 50 | 13 | IC50 (Table 2): 50 to 100 µM |
| CN(C)CCCOc1ccc(/C=c2\[nH]c(=O)/c(=C/c3ccc4ccccc4c3)[nH]c2=O)cc1 [Compound 5206] | – | – | – | – | – | INHIBITION OF PAI-1 (degree of inhibition) (20 μM, Table 1, second part): 78%; INHIBITION OF PAI-1 (degree of inhibition) (100 μM, Table 1, second part): 72%; IC50 (Table 1, second part): 3 µM |
| COc1ccc(/C=c2\[nH]c(=O)/c(=C/c3ccoc3)[nH]c2=O)cc1 [Compound 1476, (3Z,6Z)-3-(4-Methoxybenzylidene)-6-(3-furylmethylene)-2,5-piperazinedione] | – | 18 | 48 | 68 | – | IC50 (Table 2): 50 to 100 µM |
| CN(C)CCCOc1ccc(/C=c2\[nH]c(=O)/c(=C/c3ccsc3)[nH]c2=O)cc1 [Compound 5042, (3Z,6Z)-6-(4-(3-Dimethylaminopropoxy)benzylidene)-3-(3-Thenylidene)-2,5-piperazinedione] | – | – | – | – | – | inhibition at 20 µM (20 μM, Table 1, second part): 42%; inhibition at 50 µM (Table 1, second part): 64%; inhibition at 100 µM (100 μM, Table 1, second part): 77% |
| COc1ccc(/C=c2\[nH]c(=O)/c(=C/c3c[nH]c4ccccc34)[nH]c2=O)cc1 [Compound 1545, (3Z,6Z)-3-(3-Indolylmethylene)-6-(4-methoxybenzylidene)-2,5-piperazinedione] | 5 | 39 | 64 | 87 | 1 | – |
| O=c1[nH]/c(=C\c2ccc(OCCn3ccnc3)cc2)c(=O)[nH]/c1=C\c1ccccc1 [Compound 1910, (3Z,6Z)-3-Benzylidene-6-(4-(2-imidazolylethoxy)benzylidene)-2,5-piperazinedione] | 61 | 50 | 36 | 27 | 63 | IC50 (Table 2): 5 to 10 µM |
| CN(C)CCCCCCOc1ccc(/C=c2\[nH]c(=O)/c(=C/c3ccccc3)[nH]c2=O)s1 [Compound 5389.HCl] | – | – | – | – | – | INHIBITION OF PAI-1 (degree of inhibition) (20 μM, Table 1, second part): 57% |
| CN(C)CCOCCOc1ccc(/C=c2\[nH]c(=O)/c(=C/c3ccccc3)[nH]c2=O)s1 [Compound 5388.HCl] | – | – | – | – | – | INHIBITION OF PAI-1 (degree of inhibition) (20 μM, Table 1, second part): 60%; IC50 (Table 1, second part): 12 µM |
| CN(C)CC(=O)NCc1ccc(/C=c2\[nH]c(=O)/c(=C/c3ccccc3)[nH]c2=O)cc1 [Compound 5061, (3Z,6Z)-6-Benzylidene-3-(4-dimethylaminoacetamidomethylbenzylidene)-2,5-piperazinedione] | – | – | – | – | – | inhibition at 20 µM (20 μM, Table 1, second part): 60%; inhibition at 50 µM (Table 1, second part): 48%; inhibition at 100 µM (100 μM, Table 1, second part): 43% |
| CN(C)CCCOc1ccc(/C=c2\[nH]c(=O)/c(=C/c3ccc(-n4ccnc4)cc3)[nH]c2=O)cc1 [Compound 5030, (3Z,6Z)-3-(4-(3-Dimethylaminopropoxy)benzylidene)-6-(4-(1-imidazolyl)benzylidene)-2,5-piperazinedione] | – | – | – | – | – | inhibition at 20 µM (20 μM, Table 1, second part): 6%; inhibition at 50 µM (Table 1, second part): 7%; inhibition at 100 µM (100 μM, Table 1, second part): 20% |
| CN(C)CCCOc1ccc(/C=c2\[nH]c(=O)/c(=C/c3ccc(-n4ccnc4)cc3)[nH]c2=O)cc1 [Compound 1976] | 0 | 0 | 0 | 3 | 0 | – |
| O=c1[nH]/c(=C\c2ccccc2)c(=O)[nH]/c1=C\C=C(c1ccccc1)c1ccccc1 [Compound 1922, (3Z,6Z)-3-Benzylidene-6-(γ-phenylcinnamylidene)-2,5-piperazinedione] | 13 | 26 | 11 | 13 | 14 | – |
| CN(C)CCCOc1ccc(/C=c2\[nH]c(=O)/c(=C/c3ccoc3)[nH]c2=O)cc1 [Compound 5052, (3Z,6Z)-6-(4-(3-Dimethylaminopropoxy)benzylidene)-3-(3-Furylmethylene)-2,5-piperazinedione] | – | – | – | – | – | inhibition at 20 µM (20 μM, Table 1, second part): 86%; inhibition at 50 µM (Table 1, second part): 76%; inhibition at 100 µM (100 μM, Table 1, second part): 77% |
| COc1ccc(/C=c2\[nH]c(=O)/c(=C/c3ccc(OC(=O)CN4C(=O)c5ccccc5C4=O)cc3)[nH]c2=O)cc1 [Compound 1886, (3Z,6Z)-3-(4-Methoxybenzylidene)-6-(4-phthalimidoacetoxybenzylidene)-2,5-piperazinedione] | 6 | 18 | 40 | 42 | 0 | – |
| CN(C)CCCOc1ccc(/C=c2\[nH]c(=O)/c(=C/c3ccc(Cn4ccnc4)cc3)[nH]c2=O)cc1 [Compound 1975, (3Z,6Z)-3-(4-(3-Dimethylaminopropoxy)benzylidene)-6-(4-(1-imidazolylmethyl)benzylidene)-2,5-piperazinedione] | 0 | 0 | 0 | 7 | 0 | – |
| CN(C)CCCOc1ccc(/C=c2\[nH]c(=O)/c(=C/c3ccc(C(=O)NCCCCN4CCc5ccccc5C4)cc3)[nH]c2=O)cc1 [Compound 5397.HCl] | – | – | – | – | – | INHIBITION OF PAI-1 (degree of inhibition) (20 μM, Table 1, second part): 21% |
| CN(C)CCCOc1ccc(/C=c2\[nH]c(=O)/c(=C/c3ccc(C(=O)N4CCc5ccccc5C4)cc3)[nH]c2=O)cc1 [Compound 5376] | – | – | – | – | – | IC50 (Table 1, second part): 12 µM |
| COc1cc(/C=c2\[nH]c(=O)/c(=C/c3ccccc3)[nH]c2=O)ccc1OCCN(C)C [Compound 1959, (3Z,6Z)-3,Benzylidene-6-(4-(2-dimethylaminoethoxy)-3-methoxybenzylidene)-2,5-piperazinedione hydrochloride] | 2 | 2 | 1 | 5 | 1 | – |
| O=C(NCCCCN1CCc2ccccc2C1)c1ccc(/C=c2\[nH]c(=O)/c(=C/c3ccccc3)[nH]c2=O)cc1 [Compound 5371, N-(4-(1,2,3,4-Tetrahydro-2-isoquinolyl)butyl)-4-((3Z,6Z)-6-benzylidene-2,5-dioxo-3-piperazinylidene)methylbenzamide] | – | – | – | – | – | IC50 (Table 1, second part): 12 µM |
| COc1ccc(/C=c2\[nH]c(=O)/c(=C/c3ccc4c(c3)OCO4)[nH]c2=O)cc1 [Compound 1809, (3Z,6Z)-3-(4-Methoxybenzylidene)-6-(3,4-methylenedioxybenzylidene)-2,5-piperazinedione] | 7 | 84 | 76 | 81 | 1 | – |
| CN(C)CCSCc1ccc(/C=c2\[nH]c(=O)/c(=C/c3ccsc3)[nH]c2=O)cc1 [Compound 5078, (3Z,6Z)-6-(4-(2-Dimethylaminoethylthiomethyl)benzylidene)-3-(3-thenylidene)-2,5-piperazinedione] | – | – | – | – | – | inhibition at 20 µM (20 μM, Table 1, second part): 11%; inhibition at 50 µM (Table 1, second part): 67%; inhibition at 100 µM (100 μM, Table 1, second part): 60% |
| CN(C)CCOc1csc(/C=c2\[nH]c(=O)/c(=C/c3ccccc3)[nH]c2=O)c1 [Compound 5327, (3Z,6Z)-6-Benzylidene-3-(4-(2-dimethylaminoethoxy)-2-thienylmethylene)-2,5-piperazinedione] | – | – | – | – | – | inhibition at 20 µM (20 μM, Table 1, second part): 17% |
| CN(C)CC(=O)NCc1ccc(/C=c2\[nH]c(=O)/c(=C/c3ccsc3)[nH]c2=O)cc1 [Compound 5074, (3Z,6Z)-6-(4-Dimethylaminoacetamidomethylbenzylidene)-3-(3-thenylidene)-2,5-piperazinedione] | – | – | – | – | – | inhibition at 20 µM (20 μM, Table 1, second part): 26%; inhibition at 50 µM (Table 1, second part): 57%; inhibition at 100 µM (100 μM, Table 1, second part): 47% |
| CN(C)CCN(C)c1ccc(/C=c2\[nH]c(=O)/c(=C/c3ccccc3)[nH]c2=O)s1 [Compound 5299, (3Z,6Z)-6-Benzylidene-3-(5-(2-dimethylaminoethyl)methylamino-2-thienylmethylene)-2,5-piperazinedione] | – | – | – | – | – | IC50 (Table 1, second part): 7 µM |
